Patent publication US11541029B2, “High penetration compositions and their applications” (Techfields Pharma Co., Ltd., priority 2008, dated 2023)
Values after ≈ are worked out from the molar mass of the structure shown. Counter-ions that a name gives are not always drawn. Like-named read-outs stand apart in the source and are kept apart here. Non-standard residues stand in square brackets, D forms with d. *: point of attachment. Arg(NO2) = N=C(NCCC[C@H](N)C(=O)O)N[N+](=O)[O-]; OCH2CH2CH2CH3 = CCCCO*

Experiments:
eyelashes and hairs [1] = assay: Stimulation of hair growth and eyelash growth by HPCs of prostaglandins; assay type: in vivo; settings: about 0.2 ml of 1% in pure water near the eyelashes, more than 1 month
Method: (§1) About 0.2 ml of 1% of HPC of N,N-diethylaminoethyl 11,15-dihydroxy-9-oxoprost-13-en-1-oate.HBr (the HPC of prostaglandin E1), N,N-diethylaminoethyl (Z)-7-{[(1R,2R,3R,5S)-3,5-Dihydroxy-2-[1E,3S]-3-hydroxy-5-phenyl-1-pentenyl]cyclopentyl}-5-N-ethylheptenoate.HBr(the HPC of bimatoprost), (13,14-dihydro-17-phenyl-18,19,20-trinor PGF2αN,N-diethylaminoethyl ester, N,N-diethylaminoethyl (Z)-7-[(1R,2R,3R,5S)-3,5-dihydroxy-2-[(1E,3R)-3-hydroxy-4-[(α,α,α-trifluoro-m-tolyl)oxy]-1-butenyl]cyclopentyl]-5-heptenoate.HBr, or 13,14-dihydro-15-keto-20-ethyl PGF2αN,N-diethylaminoethyl ester in pure water is applied to the skin area close to the eyelashes (0.1 ml solution for each eye).
as §1, with “1” for “0.2”, “(frontal and parietal areas) on” for “area close to”, “head skull.” for “eyelashes (0.1 ml solution for each eye).”

eyelashes and hairs [2] = assay: as above; assay type: in vivo; settings: about 1 ml of 1% in pure water on head skin, more than 1 month
[3] = system: methicillin-resistant Staphylococcus aureus (MRSA); assay: Minimum inhibitory concentrations (MICs); assay type: cell-based
Method: Minimum inhibitory concentrations (MICs) of the antimicrobials and their HPCs were assessed according to Jennifer M. Andrews, Journal of Antimicrobial Chemotherapy 48, suppl. S1, 5-16 (2001). […] The test compounds are: 6-phenoxyacetacetamidopenicillanic acid 1-piperidineethyl ester hydrochloride (penicillin V-PEE), penicillin V, 6-(2,6-dimethoxybenzamido)penicillinic acid 2-pyrrolidinemethyl ester hydrochloride (methicillin-PME), methicillin, 7-[[(2-acetylamino-4-thiazolyl)(methoxyimino)acetyl]amino]-8-oxo-5-thia-1-azabicyclo[4.2.0]oct-2-ene-2-carboxylic acid 2-diethylaminoethyl ester hydrochloride (ceftizoxime-DEE), and ceftizoxime).

Hypertension patients = assay: Anti-hypertensive effect of transdermal atenolol HCl salt in patients; assay type: in vivo, human
Method: 20 Hypertension patents were divided to 2 groups. Group A was control group (n=10, 1 ml of water was administrated to the chest of patients once per day) and group B was atenolol treated group (n=10, 100 mg of atenolol HCl salt was administrated to the chest of patients once per day).

[4] = system: lesions similar to psoriasis generated by Malassezia; assay: Anti-psoriasis activity, Malassezia-induced lesions; assay type: in vivo, Chinese white rabbits; settings: HPC 5% aq. applied to the lesion areas twice per day
Method: Heavy suspensions of Malassezia [Rosenberg, E. W., et al., Mycopathologia, 72, 147-154 (1980)] were applied to the shaved skin on the backs of Chinese white rabbits (n=4×6) twice (at […]) per day for 2 weeks to generate lesions similar to psoriasis. HPCs (5%, aq.) were applied to the same areas 3 hours (10 am and 6 pm) after the application of Malassezia (7 am and 3 pm). […] HCl, diethylaminoethyl 1,8-diethyl-1,3,4,9-tetrahydropyrano-[3,4-b]indole-1-acetate.HCl, diethylaminoethyl 2-amino-3-(4-bromo-benzoyl)benzeneacetate.HCl, diethylaminoethyl 3-chloro-4-(2-propenyloxy)benzeneacetate. HCl, diethylaminoethyl 1-(4-chlorobenzoyl-5-methoxy-2-methyl-1H-indole-3-acetoxyacetate. HCl, diethylaminoethyl 4-(4-chlorophenyl)-2-phenyl-5-thiazoleacetate.HCl, and diethylaminoethyl 3-(4-chlorophenyl)-1-phenyl-1H-pyrazole-4-acetate.HCl

[5] = system: Human colon cancer cells (LS174J); assay: Human colon cancer xenograft in nude mice
Source text: Human colon cancer cells (LS174J, 2-3 mm^3 of tumor tissue was used in each mouse) were subcutaneously xenografted into nude mice (BALB).

[6] = system: Human breast cancer cells (BCAP-37); assay: Human breast cancer xenograft in nude mice
Method: Human breast cancer cells (BCAP-37, 2-3 mm^3 of tumor tissue was used in each mouse) were subcutaneously xenografted into nude mice (BALB, 12 groups, 7 mice each group). […] 50 μl of 5% (equal to 2.5 mg of the HPCs) diethylaminoethyl acetylsalicylate.HCl (P-1, in pure water); 1-piperidinepropyl 2[(2,6-dichlorophenyl)amino]benzene acetate.HCl (P-2, in water), 1-pyrrolidinepropyl 2-(3-benzoylphenyl) propionate.HCl (P-3, in water), 4-piperidinemethyl 2-(3-phenoxyphenyl)propionate.HCl (P-4, in water), 3-piperidinemethyl 2-(ρ-isobutylphenyl) propionate.HCl (P-5, in water), diethylaminoethyl 1-(p-chlorobenzoyl)-5-methoxy-2-methylindole 3-acetate.HCl (P-11, in water), 2-(4-morpholinyl)ethyl (Z)-5-fluoro-2-methyl-1-[(4-methylsulfinyl)phenylmethylene]-1H-indene-3-acetate.

[7] = system: Female Sprague Dawley (SD) rats; assay: Anti-obesity in Sprague Dawley rats; assay type: in vivo
Method: 20 Female Sprague Dawley (SD) rats (20 weeks old, 320-345 g) were divided into 2 groups. In group A, 0.2 ml of water was administered to the back of rat (n=10) twice per day for 30 days. In Group B, 10 mg/kg of H-Val-Pro-Gly-Pro-Arg(NO2)—OCH2CH2CH2CH3.HCl in 0.2 ml of water was administered transdermally to the backs of rats (n=10) twice per day for 30 days.

[8] = system: obese DB/DB mice (SLAC/DB/DB); assay: Anti-obesity in obese mice (SLAC/DB/DB); assay type: in vivo
Method: 20 obese DB/DB mice (SLAC/DB/DB) mice (16 weeks old, 55-60 g) were divided into 2 groups. In group A, 0.1 ml of water was administered to the back of mouse (n=10) twice per day for 30 days. In Group B, 15 mg/kg of H-Val-Pro-Gly-Pro-Arg(NO2)—OCH2CH2CH2CH3.HCl in 0.2 ml of water was administered transdermally to the backs of rats (n=10) twice per day for 30 days.

[9] = system: carrageenin-induced swelling of rat hind paw; assay: Anti-inflammatory activity, carrageenin paw swelling; assay type: in vivo, rats
[10] = system: MPTP-induced Parkinson's disease mice; assay: Anti-Parkinson's disease activity in MPTP-induced mice; settings: mouse, in vivo
Method: Group A mice were ip injected 0.4% sodium carboxymethylcellulos (15 ml/kg per day) for 7 days. Group B and C mice were ip injected N-methyl-4-phenyl-1,2,3,6-tetrahydropyridine (MPTP, 30 mg/kg per day) for 7 days. The mice were divided into 2 groups. […] All mice were killed after the last treatment and the brain tissues were quickly freezed at −80° C. […] The contents of malondialdehyde (MDA) in the SN were measured with the thiobarbituric acid-reaction to indicate the LPO, and contents of glutathione (GSH) in the substantia nigra (SN) were based on the dithionitrobenzonic acid (DTNB) determination. The contents of GABA and Glu in the striatum and SN were shown by high performance amino acid auto-analyser.

[11] = 100 mg to the chest once per day, n=10
[12] = 10 mg/kg transdermally twice per day for 30 days
[13] = 15 mg/kg transdermally twice per day for 30 days

## Br.CCCCCC(O)C=C[C@H]1C(O)CC(=O)[C@@H]1CCCCCCC(=O)OCCN(CC)CC (stereo partly shown) [HPC of prostaglandin E1, N,N-diethylaminoethyl 11,15-dihydroxy-9-oxoprost-13-en-1-oate.HBr]
Eyelashes and hairs [1]
  eyelash growth: grow longer and fuller
Eyelashes and hairs [2]
  hair growth: grow longer and fuller

## CO/N=C(\C(=O)N[C@@H]1C(=O)N2C(C(=O)O)=CCS[C@H]12)c1csc(N)n1 [ceftizoxime, reference compound]
[3]; read-out: MIC
  MIC: 986 µg/mL (≈ 2.57 mM)

## CC1(C)SC2C(NC(=O)COc3ccccc3)C(=O)N2C1C(=O)OCCN1CCCCC1.Cl (stereo not shown) [penicillin V-PEE, 6-phenoxyacetacetamidopenicillanic acid 1-piperidineethyl ester hydrochloride]
[3]
  MIC: 12 µg/mL

## CCN(CC)CCOC(=O)C1=CCSC2C(NC(=O)C(=NOC)c3csc(NC(C)=O)n3)C(=O)N12.Cl (stereo not shown) [ceftizoxime-DEE, 7-[[(2-acetylamino-4-thiazolyl)(methoxyimino)acetyl]amino]-8-oxo-5-thia-1-azabicyclo[4.2.0]oct-2-ene-2-carboxylic acid 2-diethylaminoethyl ester hydrochloride]
[3]; read-out: MIC
  MIC: 2.5 µg/mL

## COc1cccc(OC)c1C(=O)NC1C(=O)N2C1SC(C)(C)C2C(=O)OCC1CCCN1.Cl (stereo not shown) [methicillin-PME, 6-(2,6-dimethoxybenzamido)penicillinic acid 2-pyrrolidinemethyl ester hydrochloride]
[3]
  MIC: 19 µg/mL

## CCN(CC)CCOC(=O)CCC/C=C\C[C@@H]1[C@@H](CC[C@@H](O)CCc2ccccc2)[C@H](O)C[C@@H]1O [(13,14-dihydro-17-phenyl-18,19,20-trinor PGF2αN,N-diethylaminoethyl ester]
Eyelashes and hairs [1]
  eyelash growth: grow longer and fuller
Eyelashes and hairs [2]
  hair growth: grow longer and fuller

## CC(C)NCC(O)COc1ccc(CC(N)=O)cc1 (stereo not shown) [atenolol HPC, atenolol HCl salt]
Hypertension patients; 100 mg in 1 ml of pure water per day transdermally
  side effect: without side effect of hypotention
Hypertension patients; [11]
  Blood Pressure (before treatment), first figure of the pair: 160 ± 22 mmHg
  Blood Pressure (before treatment), second figure of the pair: 110 ± 20 mmHg
  Blood pressure (2 weeks after treatment), first figure of the pair: 128 ± 15 mmHg
  Blood pressure (2 weeks after treatment), second figure of the pair: 81 ± 12 mmHg

## CC(C)Cc1ccc(C(C)C(=O)OCC2CCCNC2)cc1.Cl (stereo not shown) [P-5, 3-piperidinemethyl 2-(ρ-isobutylphenyl) propionate.HCl]
[4]
  time until lesions healed after the application: 10 days
[5]; about 50 μl of 5% topically every 12 hours
  tumor Size at day 30: 520 ± 140 mm^3
[5]; in vivo
  Weight of mice at day 30: 23 ± 2
[6]; 50 μl of 5% topically every 8 hours
  tumor Size at day 42: 180 ± 55 mm^3
[6]; in vivo
  Weight of mice at day 42: 23 ± 2

## H-Val-Pro-Gly-Pro-Arg(NO2)—OCH2CH2CH2CH3.HCl (H-VPGP[Arg(NO2)]-OCH2CH2CH2CH3; also: HCl salt)
[7]; [12]
  Food intake (per day & per rat): 17.5 ± 1.2
  Weight (Day1): 333.5 ± 4.2 g
  Weight (Day 30): 301.4 ± 3.7 g
[7]; rat, in vivo
  control group heavier than the peptide treated group: about 17%
[8]; [13]
  Food intake (per day & per rat): 3.9 ± 0.3
  Weight (Day1): 57.1 ± 1.8 g
  Weight (Day 30): 53.4 ± 4.7 g
[8]; mouse, in vivo
  control group heavier than the peptide treated group: about 26%

## COc1cccc(OC)c1C(=O)N[C@@H]1C(=O)N2[C@@H]1SC(C)(C)[C@@H]2C(=O)O [methicillin, reference compound]
[3]; read-out: MIC
  MIC: 1160 µg/mL (≈ 3.04 mM)

## CCN(CC)CCOC(=O)C(C)c1ccc(CC(C)C)cc1.O=C(O)CC(O)(CC(=O)O)C(=O)O (stereo not shown) [diethylaminoethyl 2-(p-isobutylphenyl)propionate.citric acid]
[9]; 20 mg/kg (2×10 mg) transdermally
  anti-inflammatory activity (rate of swelling) compared with ibuprofen: much stronger than that of 100 mg/kg of ibuprofen (oral)
[9]; 50 mg/kg orally
  anti-inflammatory activity (rate of swelling) compared with ibuprofen: much stronger than that of 100 mg/kg of ibuprofen (oral)

## Br.CCN(CC)CCOC(=O)CCC/C=C\C[C@@H]1[C@@H](/C=C/[C@@H](O)COc2cccc(C(F)(F)F)c2)[C@H](O)C[C@@H]1O [N,N-diethylaminoethyl (Z)-7-[(1R,2R,3R,5S)-3,5-dihydroxy-2-[(1E,3R)-3-hydroxy-4-[(α,α,α-trifluoro-m-tolyl)oxy]-1-butenyl]cyclopentyl]-5-heptenoate.HBr]
Eyelashes and hairs [1]
  eyelash growth: grow longer and fuller
Eyelashes and hairs [2]
  hair growth: grow longer and fuller

## Br.CCN(CC)CCOC(=O)CCC/C=C\C[C@@H]1[C@@H](/C=C/[C@@H](O)CCc2ccccc2)[C@H](O)C[C@@H]1O [HPC of bimatoprost, N,N-diethylaminoethyl (Z)-7-{[(1R,2R,3R,5S)-3,5-Dihydroxy-2-[1E,3S]-3-hydroxy-5-phenyl-1-pentenyl]cyclopentyl}-5-N-ethylheptenoate.HBr]
Eyelashes and hairs [1]
  eyelash growth: grow longer and fuller
Eyelashes and hairs [2]
  hair growth: grow longer and fuller

## CC1(C)S[C@@H]2[C@H](NC(=O)COc3ccccc3)C(=O)N2[C@H]1C(=O)O [penicillin V, reference compound]
[3]
  MIC: 1824 µg/mL (≈ 5.21 mM)

## NC(=O)C[S+]([O-])C(c1ccccc1)c1ccccc1 (stereo not shown) [modafinil, reference compound]
[10]
  effect on the increase of nigrostriatal Glu release induced by MPTP: did not change the increase of nigrostriatal Glu release induced by MPTP

## CCCCCCCC(=O)CC[C@@H]1[C@@H](C/C=C\CCCC(=O)OCCN(CC)CC)[C@@H](O)C[C@H]1O [13,14-dihydro-15-keto-20-ethyl PGF2αN,N-diethylaminoethyl ester]
Eyelashes and hairs [1]
  eyelash growth: grow longer and fuller
Eyelashes and hairs [2]
  hair growth: grow longer and fuller
